US20240307430A1, “PHARMACEUTICAL COMPOSITION CONTAINING NICOTINAMIDE ADENINE DINUCLEOTIDE (NAD) AND CD38 INHIBITOR AND APPLICATION THEREOF” (HEFEI KNATURE BIO-PHARM CO., LTD., priority 2021, published 2024)

Assays:
[1] = test system: Doxorubicin-induced cardiotoxicity (DIC) model; assay: Echocardiography of cardiac function (EF, FS) in the DIC model; assay type: in vivo, C57BL/6 male mice
Experimental: (§1) Circulation. 2016; 133:1668-1687”. 8-week-old C57BL/6 male mice were injected with 5 mg/kg of doxorubicin (DOX) or normal saline via the tail vein, and the administration was performed once a week for four consecutive weeks. Four weeks after the last administration, the mice were subjected to echocardiography to detect the cardiac function, and myocardial tissues of the mice were taken to detect the NAD^+ content. Mice were intraperitoneally injected with the same volume of saline as that of the experimental group once a day, and the duration cycle was the same as that of the DIC model. After administration, mice were subjected to echocardiography to detect the cardiac function, and myocardial tissues were taken from mice to detect NAD^+ content. CD38 inhibitor 78c was dissolved with DMSO. Mice were injected intraperitoneally with 10 mg/kg CD38 inhibitor 78c at 3 hours before doxorubicin injection in the DIC model. 78c was administered once a day until the endpoint of the DIC model. At the end of the model, echocardiography was performed on the mice to detect the cardiac function of the mice, and myocardial tissues were taken from the mice to detect NAD^+ content. NAD was dissolved in saline. Mice were injected intraperitoneally with 50 mg/kg NAD at 3 hours before doxorubicin injection in the DIC model. NAD was administered once a day, which lasted until the endpoint of the DIC model. At the end of the model, mice were subjected to echocardiography to detect cardiac function, and myocardial tissues were taken from mice to detect NAD^+ content. CD38 inhibitor 78c was dissolved in DMSO. Mice were injected intraperitoneally with 50 mg/kg NAD and 10 mg/kg CD38 inhibitor 78c at 3 hours before doxorubicin injection in the DIC model. The CD38 inhibitor 78c was administered once a day, which lasted until the endpoint of the DIC model. At the end of the model, mice were subjected to echocardiography to detect cardiac function, and myocardial tissues were taken from mice to detect NAD^+ content.

[2] = test system: Doxorubicin-induced cardiotoxicity (DIC) model; assay: NAD+ content of cardiac tissues in the doxorubicin-induced cardiotoxicity (DIC) model; assay type: in vivo, C57BL/6 male mice; settings: FIG. 2
Experimental: as §1, with “At the end of the model, mice were subjected to echocardiography to detect cardiac function, and myocardial tissues were taken from mice to detect NAD^+ content. CD38 inhibitor 78c was dissolved in DMSO. Mice were injected intraperitoneally with 50 mg/kg NAD and 10 mg/kg CD38 inhibitor 78c at 3 hours before doxorubicin injection in the DIC model. The CD38 inhibitor 78c was administered once a day, which lasted until the endpoint of the DIC model. At the end of the model, mice were subjected to echocardiography to detect cardiac function, and myocardial tissues were taken from mice to detect NAD^+ content.” left out

[3] = test system: CD38; assay: CD38 expression in mouse heart tissues after doxorubicin treatment; assay type: in vivo, mice; settings: after doxorubicin treatment (5 mg/kg via tail vein, once a week for four weeks); mainly in CD31-positive endothelial cell region; FIG. 1
Experimental: 8-week-old C57BL/6 male mice were injected with 5 mg/kg of doxorubicin (DOX) or normal saline via the tail vein, and the administration was performed once a week for four consecutive weeks. Four weeks after the last administration, the mice were subjected to echocardiography to detect the cardiac function, and myocardial tissues of the mice were taken to detect the NAD^+ content.

[4] = target: T1, CD38 (Homo sapiens, UniProt P28907); settings: from the literature, Cell Metabolism 2018; cited from earlier work
T1 sequence (P28907 1-300): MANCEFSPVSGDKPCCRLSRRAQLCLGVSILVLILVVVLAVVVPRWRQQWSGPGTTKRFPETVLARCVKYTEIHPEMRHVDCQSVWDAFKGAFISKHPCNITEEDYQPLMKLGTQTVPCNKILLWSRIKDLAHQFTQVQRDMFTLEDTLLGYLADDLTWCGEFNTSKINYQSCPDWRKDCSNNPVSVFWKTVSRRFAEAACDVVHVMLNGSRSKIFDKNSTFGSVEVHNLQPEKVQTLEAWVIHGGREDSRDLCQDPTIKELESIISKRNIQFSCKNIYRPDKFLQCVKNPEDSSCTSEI

Row | SMILES | ejection fraction (EF) of the mouse heart ([1]; doxorubicin 5 mg/kg via tail vein once a week for four weeks, echocardiography, FIG. 3a) | fractional shortening (FS) of the mouse heart ([1]; doxorubicin 5 mg/kg via tail vein once a week for four weeks, echocardiography, FIG. 3b) | NAD+ content of the cardiac tissues ([2]; doxorubicin 5 mg/kg via tail vein once a week for four weeks, compared with the control group) | CD38 expression in mouse heart tissues [3] | cardiac function (EF, FS) ([1]; DOX-treated mice, i.p. once a day from 3 hours before doxorubicin, NAD 50 mg/kg, 78c 10 mg/kg, FIGS. 3a and 3b) | cardiac NAD+ content ([2]; DOX-treated mice, i.p. once a day from 3 hours before doxorubicin, NAD 50 mg/kg, 78c 10 mg/kg) | inhibitory activity against CD38 [4]
1 | COc1cccc2c1C(=O)c1c(O)c3c(c(O)c1C2=O)C[C@@](O)(C(=O)CO)C[C@@H]3O[C@H]1C[C@H](N)[C@H](O)[C@H](C)O1 [doxorubicin] | significantly reduced | significantly reduced | significant decrease | significantly increased |  |  | 
2 | COCCOC1CCC(Nc2cc(=O)n(C)c3ccc(-c4cncs4)cc23)CC1 (stereo not shown) [compound 78c] |  |  |  |  | improved cardiac function | modestly increased | has been demonstrated
